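How tested: cells in 96-well plates exposed to compound for 48 hours at five concentrations. GI50 = concentration required for 50% inhibition of growth.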 Calls of active or inactive are those of the source. Cut-off read from the data, not from the text of the source: active = GI50 up to about 1.1 µM and inactive = higher. Some results are limits rather than exact numbers.

The values that follow come from ChEMBL document CHEMBL1201862, “PubChem BioAssay data set” (2004).

Some test systems named below: UACC-257; CAKI-1; RXF 393; OVCAR-4; SF-539; HCC 2998; KM12; NCI-H522; SR; HCT-15; SK-OV-3; SF-295; EKVX; TK-10; U-251; SK-MEL-2; NCI/ADR-RES; SN12C; OVCAR-5; 786-0.
Common to all, as to assay: inhibition of tumour cell growth, NCI panel, 48 h

`Fc1cc(C2=C[C@H](c3ccc(Cl)cc3)NC(=S)N2)c(Cl)cc1Cl`: the GI50 in the assay with UACC-257 was 31.6 µM (inactive); with CAKI-1 it was 43 µM (inactive); with RXF 393, 31.1 µM (inactive); with OVCAR-4, 35.7 µM (inactive); with SF-539 it was > 100 µM (inactive); in the assay with HCC 2998, 23.3 µM (inactive). Moreover, the GI50 is 49.4 µM (inactive) in the assay on KM12; 34 µM (inactive) with NCI-H522; 40.6 µM (inactive) with SR; 46.8 µM with HCT-15; > 100 µM (inactive) in the assay with SK-OV-3; 28.2 µM (inactive) in the assay with SF-295. The GI50 is 31.6 µM (inactive) with EKVX; 45.1 µM (inactive) with TK-10; 29.6 µM (inactive) in the assay with U-251; 27.2 µM (inactive) in the assay on SK-MEL-2; 64.1 µM (inactive) in the assay on NCI/ADR-RES; 29.3 µM (inactive) with SN12C. In addition, the values for the GI50 in the assay with OVCAR-5 and in the assay with 786-0 were > 100 µM (inactive) and 47.9 µM (inactive), respectively.
As to `O=C1CSC(c2cccs2)N1c1nc2cc3sc(N4C(=O)CSC4c4cccs4)nc3cc2s1` (stereo not given), the GI50 with UACC-257 is > 50 µM (inactive); in the assay on CAKI-1, 47.4 µM (inactive); in the assay on RXF 393 it was > 50 µM (inactive); in the assay with OVCAR-4, > 50 µM (inactive); with SF-539 it was 0.753 µM (active); with HCC 2998, > 50 µM (inactive). Also, the GI50 was > 50 µM (inactive) in the assay with KM12; 13.2 µM (inactive) in the assay on NCI-H522; 5.45 µM (inactive) in the assay on SR; 33.4 µM in the assay on HCT-15; > 50 µM (inactive) with SK-OV-3; > 50 µM (inactive) in the assay with SF-295. For the same molecule, the GI50 in the assay on EKVX is 16 µM (inactive); in the assay on TK-10 it was > 50 µM (inactive); in the assay on U-251, 40.9 µM (inactive); in the assay on SK-MEL-2, > 50 µM (inactive); in the assay with NCI/ADR-RES, 43.1 µM (inactive); in the assay with SN12C, 26.4 µM (inactive). The GI50 in the assay on OVCAR-5 and in the assay on 786-0 was > 50 µM (inactive) each time.
In the case of `O=c1nc(N2CCNCC2)oc2cc(Cl)oc(=O)c12`, the GI50 in the assay with UACC-257 was 7.57 µM (inactive); with CAKI-1, 2.59 µM (inactive); in the assay with RXF 393 it was 9.1 µM (inactive); with OVCAR-4, 5.45 µM (inactive); in the assay on SF-539, 2.25 µM (inactive); in the assay with HCC 2998, 11.1 µM (inactive). Moreover, the GI50 with KM12 was 5.96 µM (inactive); with NCI-H522 it was 1.7 µM (inactive); in the assay on SR it was 1.65 µM (inactive); in the assay with HCT-15, 3.25 µM; in the assay with SK-OV-3, 12.3 µM (inactive); with SF-295 it was 7.13 µM (inactive). Besides, the GI50 in the assay with EKVX is 6.28 µM (inactive); in the assay with TK-10, 9.02 µM (inactive); in the assay on U-251 it was 3.91 µM (inactive); in the assay on SK-MEL-2, 8.49 µM (inactive); in the assay on NCI/ADR-RES it was 6.47 µM (inactive); in the assay with SN12C, 6.11 µM (inactive). Further, the GI50 in the assay on OVCAR-5 was 15.5 µM (inactive); with 786-0 it was 3.34 µM (inactive).
Consider `C=C[C@@]1(C)CC(=O)[C@]2(O)[C@@]3(C)[C@@H](O)CCC(C)(C)[C@@H]3[C@H](O)[C@@H](OC(C)=O)[C@@]2(C)O1`, for which the GI50 in the assay on UACC-257 was > 100 µM (inactive); in the assay on CAKI-1 it was 27.1 µM (inactive); in the assay with RXF 393, 11.2 µM (inactive); in the assay with OVCAR-4 it was > 100 µM (inactive); with SF-539, > 100 µM (inactive); with HCC 2998, > 100 µM (inactive). For the same molecule, the GI50 with KM12 is 1.7 µM (inactive); in the assay with NCI-H522, > 100 µM (inactive); with SR, > 100 µM (inactive); in the assay on HCT-15 it was above 100 µM; in the assay with SK-OV-3, 95.1 µM (inactive); in the assay on SF-295, > 100 µM (inactive). Also, the GI50 is > 100 µM (inactive) in the assay with EKVX; > 100 µM (inactive) in the assay on TK-10; > 100 µM (inactive) with U-251; > 100 µM (inactive) with SK-MEL-2; > 100 µM (inactive) with NCI/ADR-RES; 57.7 µM (inactive) in the assay on SN12C. Also, the values for the GI50 in the assay on OVCAR-5 and in the assay on 786-0 were 72.6 µM (inactive) and > 100 µM (inactive), respectively.
Regarding `Cc1ccc2c(c1C)C(=O)C1(C2)Cc2ccc3c(c2C1=O)CCC3` (stereo not given), the GI50 is > 100 µM (inactive) in the assay on UACC-257; > 100 µM (inactive) in the assay on CAKI-1; 41.8 µM (inactive) in the assay with RXF 393; > 100 µM (inactive) in the assay with OVCAR-4; 29.9 µM (inactive) in the assay on SF-539; > 100 µM (inactive) in the assay on HCC 2998. Moreover, the GI50 in the assay on KM12 was > 100 µM (inactive); with NCI-H522, > 100 µM (inactive); in the assay on SR it was > 100 µM (inactive); with HCT-15, above 100 µM; with SK-OV-3, > 100 µM (inactive); with SF-295 it was > 100 µM (inactive). Besides, the GI50 in the assay with EKVX, in the assay with TK-10, with U-251, with SK-MEL-2, with NCI/ADR-RES and in the assay with SN12C was > 100 µM (inactive) throughout. Besides, the GI50 in the assay with OVCAR-5 and in the assay on 786-0 was > 100 µM (inactive) in each case.
